In US20260034124A1, “NOVEL SALTS AND CRYSTALS” (INTRA-CELLULAR THERAPIES, INC., priority 2022, published 2026):
Like-named read-outs stand apart in the source and are kept apart here.

Columns and labels:
[1] = Aqueous solubility determination, saturated solution shaken in water, LC; type: physicochemical; details: slurried 24 hours, filtered
Description: The aqueous solubility of the successfully reproduced salts is determined by shaking a saturated solution in water. The solubility at pH 7.4 is determined by shaking a saturated solution in a phosphate buffered system. The samples are prepared by the addition of a known amount of water (100-200 μl) and subsequent slurrying with the solid for 24 hours. All samples are then filtered using syringe filters to remove undissolved solids, and then the filtrates are diluted with methanol/acetonitrile (1:1 v/v). LC analysis of the samples is performed, and a calibration line is used for the determination of the solubilities.

[2] = free base form, cited from earlier work
H1 histaminergic = H1 histaminergic (Homo sapiens, UniProt P35367); details: cited from earlier work
Sequence of H1 histaminergic (P35367 whole entry): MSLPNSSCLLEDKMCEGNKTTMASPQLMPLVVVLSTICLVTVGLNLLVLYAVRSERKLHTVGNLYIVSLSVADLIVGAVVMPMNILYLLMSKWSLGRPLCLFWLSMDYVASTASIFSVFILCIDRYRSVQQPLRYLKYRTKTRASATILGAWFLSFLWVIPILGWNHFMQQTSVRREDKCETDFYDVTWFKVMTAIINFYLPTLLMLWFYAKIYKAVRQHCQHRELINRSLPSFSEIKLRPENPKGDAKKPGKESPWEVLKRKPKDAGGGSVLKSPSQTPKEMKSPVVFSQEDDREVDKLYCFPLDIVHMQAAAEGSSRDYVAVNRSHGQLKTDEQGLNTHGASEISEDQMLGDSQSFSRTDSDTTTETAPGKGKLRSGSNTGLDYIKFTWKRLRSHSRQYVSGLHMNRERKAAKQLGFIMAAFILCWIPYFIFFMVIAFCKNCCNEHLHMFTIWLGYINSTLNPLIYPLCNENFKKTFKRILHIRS

5-HT2C = molecular target: T1, 5-HT2C (Homo sapiens, UniProt P28335); details: cited from earlier work
T1 sequence (P28335 33-458): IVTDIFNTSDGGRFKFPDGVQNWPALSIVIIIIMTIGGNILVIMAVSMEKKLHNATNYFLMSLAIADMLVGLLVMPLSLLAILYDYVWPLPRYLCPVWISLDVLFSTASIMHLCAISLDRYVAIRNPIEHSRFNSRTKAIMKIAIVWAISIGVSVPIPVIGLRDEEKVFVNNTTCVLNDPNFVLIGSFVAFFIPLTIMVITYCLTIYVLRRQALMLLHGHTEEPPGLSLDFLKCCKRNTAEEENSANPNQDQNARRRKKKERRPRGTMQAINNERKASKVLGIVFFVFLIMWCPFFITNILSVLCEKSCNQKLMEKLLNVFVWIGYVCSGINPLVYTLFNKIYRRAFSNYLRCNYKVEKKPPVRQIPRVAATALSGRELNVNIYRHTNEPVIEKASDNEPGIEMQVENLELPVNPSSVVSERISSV

muscarinic = details: cited from earlier work

CCCCCCCCc1ccc(S(=O)(=O)O)cc1.CN1CCN2c3c(cccc31)[C@@H]1CN(CCCC(=O)c3ccc(F)cc3)CC[C@@H]12 [4-octylbenzenesulfonate salt, lumateperone 4-octylbenzenesulfonate salt]
Aqueous Solubility [1]: 0.006 mg/mL

CC(C)(C)c1ccc(S(=O)(=O)O)cc1.CN1CCN2c3c(cccc31)[C@@H]1CN(CCCC(=O)c3ccc(F)cc3)CC[C@@H]12 [4-t-butylbenzenesulfonate salt, lumateperone 4-tert-butylbenzenesulfonate salt]
Aqueous Solubility [1]: 0.77 mg/mL

CCCc1ccc(S(=O)(=O)O)cc1.CN1CCN2c3c(cccc31)[C@@H]1CN(CCCC(=O)c3ccc(F)cc3)CC[C@@H]12 [Example 4, lumateperone 4-propylbenzenesulfonate salt]
Aqueous Solubility [1]: 1.62 mg/mL

CCCCCS(=O)(=O)O.CN1CCN2c3c(cccc31)C1CN(CCCC(=O)c3ccc(F)cc3)CCC12 (stereo not shown) [Example 8, lumateperone pentane-1-sulfonic salt]
Aqueous Solubility [1]: 18.77 mg/mL

CCCCCCCS(=O)(=O)O.CN1CCN2c3c(cccc31)C1CN(CCCC(=O)c3ccc(F)cc3)CCC12 (stereo not shown) [Example 9, lumateperone heptane-1-sulfonic salt]
Aqueous Solubility [1]: 4.30 mg/mL

CN1CCN2c3c(cccc31)[C@@H]1CN(CCCC(=O)c3ccc(F)cc3)CC[C@@H]12 [Lumateperone, 4-((6bR,10aS)-3-methyl-2,3,6b,9,10,10a-hexahydro-1H-pyrido[3′,4′: 4,5]pyrrolo[1,2,3-de]quinoxalin-8(7H)-yl)-1-(4-fluorophenyl)-1-butanone]
aqueous solubility of free base (in words) ([2]; listed as ITI-007): poor aqueous solubility | aqueous solubility of free base (in words) ([2]; listed as Lumateperone free base): very low water-solubility | binding to H1 histaminergic receptors (H1 histaminergic): negligible binding | binding to 5-HT2C receptors (5-HT2C): negligible binding | binding to muscarinic receptors (muscarinic): negligible binding
